# Test results published in publication PMC12020277, “Pharmacology and macrophage modulation of HPGDS inhibitor PK007 demonstrate reduced disease severity in DMD-affected muscles of the mdx mouse model” (Skeletal Muscle, 2025).
# Biological target: T1, hematopoietic prostaglandin D2 synthase (HPGDS) (Homo sapiens, UniProt O60760)
# T1 construct: human recombinant
# Assay: fluorescence polarisation probe-displacement assay (Cayman kit #[…]), recombinant human HPGDS
# Assay type: binding
# T1 sequence (O60760 whole entry): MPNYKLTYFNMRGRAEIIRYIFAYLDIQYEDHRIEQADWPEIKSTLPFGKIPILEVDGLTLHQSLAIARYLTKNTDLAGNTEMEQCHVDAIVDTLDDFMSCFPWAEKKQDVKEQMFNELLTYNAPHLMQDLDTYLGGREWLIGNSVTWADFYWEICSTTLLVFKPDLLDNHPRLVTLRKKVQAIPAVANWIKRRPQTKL
substance,measurement,value
PK007,IC50,1540 ± 260 nM
